Assay [1] relates to RS4;11 cells. The following applies: RS4;11 acute lymphoblastic leukemia cell line; cited from earlier work.
Assay [2] has as its system RS4;11 cells. Description: RS4;11 cell viability assay (CellTiter Glo).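 Also: acute lymphoblastic leukemia line RS4,11, EC50 derived from percentage of viable cells after treatment relative to untreated controls, cell killing taken as a measure of Bcl-2 inhibition.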 It is filed as cell-based, human. To be noted: Homo sapiens, read-out: RS4.
Experimental: The acute lymphoblastic leukemia (ALL) cell line RS4;11 was used as the primary human cell line to assess the cellular activity of Bcl-2 selective agents in vitro and their efficacy in vivo.
Cell cytotoxicity EC50 values were assessed using CellTiter Glo (Promega) according to the manufacturer's recommendations. The EC50 values were determined as a percentage of viable cells following treatment compared to the untreated control cells.
A further assay addresses Bcl-2 (Homo sapiens (Human), UniProt P10415). Description: Time Resolved-Fluorescence Resonance Energy Transfer (TR-FRET) Bcl-2 binding assay. A general note: TR-FRET usually uses a lanthanide donor and a delayed reading to cut background.
Where [3] appears, read: RS4-11, 48 h, 50,000 cells per well, 10% human serum, 48 hours, 11 EC50 Values.
[4] abbreviates: RS4-11, Table 5, direct comparison Z=N with corresponding analogs Z=C, 11 EC50.
The mark [5] stands for this setting: Table 5, direct comparison Z=N with corresponding analogs Z=C, read-out: Bcl-2 FRET ki.
Where [6] appears, read: GST-Bcl-2 1 nM, F-Bak peptide probe 100 nM, Tb-anti-GST 1 nM, < means below limit of detection, read-out: TR-FRET Bcl-2 Binding Ki.

Read-outs that look alike come from different tables or passages of the source. A value given as a limit tells only on which side of the number the result lay.

The Ki is a measure of affinity in units of concentration, obtained from inhibition or displacement.

Chain of Bcl-2 (P10415 whole entry): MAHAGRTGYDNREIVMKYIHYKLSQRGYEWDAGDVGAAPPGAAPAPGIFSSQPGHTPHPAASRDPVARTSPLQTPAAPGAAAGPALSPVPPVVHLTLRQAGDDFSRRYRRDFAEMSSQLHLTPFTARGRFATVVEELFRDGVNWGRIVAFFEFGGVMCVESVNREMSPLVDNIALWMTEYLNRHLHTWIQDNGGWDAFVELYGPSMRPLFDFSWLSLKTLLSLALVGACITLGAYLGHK
Experimental for Bcl-2: The samples are then mixed on a shaker for 1 minute and incubated for an additional 3 hours at room temperature. For each assay, the probe/antibody and protein/probe/antibody were included on each assay plate as negative and positive controls, respectively.
The samples were then mixed on a shaker for 1 minute and incubated for an additional 3 hours at room temperature. For each assay, the probe/antibody and protein/probe/antibody were included on each assay plate as negative and positive controls, respectively.

Consider `CN(C)CC[C@H](CSc1ccccc1)Nc1ccc(S(=O)(=O)NC(=O)c2ccc(N3CCN(Cc4ccccc4-c4ccc(Cl)cc4)CC3)cc2)cc1[N+](=O)[O-]` [ABT-737, N-(4-(4-((4′-chloro(1,1′-biphenyl)-2-yl)methyl)piperazin-1-yl)benzoyl)-4-(((1R)-3-(dimethylamino)-1-((phenylsulfanyl)methyl)propyl)amino)-3-nitrobenzenesulfonamide], for which the “sensitivity of RS4;11 cells to inhibitor” value in the assay on RS4;11 cells [1] is “sensitive”.

Regarding `COCCNc1ccc(S(=O)(=O)NC(=O)c2ccc(N3CCN(CC4=C(c5ccc(Cl)cc5)CC(C)(C)CC4)CC3)cc2Oc2cnc3[nH]ccc3c2)cc1[N+](=O)[O-]` [Example 10, 4-(4-{[2-(4-chlorophenyl)-4,4-dimethylcyclohex-1-en-1-yl]methyl}piperazin-1-yl)-N-({4-[(2-methoxyethyl)amino]-3-nitrophenyl}sulfonyl)-2-(1H-pyrrolo[2,3-b]pyridin-5-yloxy)benzamide], the EC50 in the assay with RS4;11 cells [2] (setting [3]) and with RS4;11 cells [2] (setting [4]) was 52 nM each time. Besides, the Ki at Bcl-2 (setting [5]) is < 0.01 nM.

Consider `CC1(C)CCC(CN2CCN(c3ccc(C(=O)NS(=O)(=O)c4ccc(OCC5COCCO5)c([N+](=O)[O-])c4)c(Oc4cnc5[nH]ccc5c4)c3)CC2)=C(c2ccc(Cl)cc2)C1` (centres unmarked) [Example 12, 4-(4-{[2-(4-chlorophenyl)-4,4-dimethylcyclohex-1-en-1-yl]methyl}piperazin-1-yl)-N-{[4-(1,4-dioxan-2-ylmethoxy)-3-nitrophenyl]sulfonyl}-2-(1H-pyrrolo[2,3-b]pyridin-5-yloxy)benzamide], for which the figures for the EC50 in the assay on RS4;11 cells [2] (setting [3]) and in the assay on RS4;11 cells [2] (setting [4]) were 34.7 nM and 35 nM, respectively. In addition, the Ki at Bcl-2 (setting [5]) was < 0.01 nM.

On to `CC1(C)CCC(CN2CCN(c3ccc(C(=O)NS(=O)(=O)c4ccc(NC[C@H]5CCCOC5)c([N+](=O)[O-])c4)c(Oc4cnc5[nH]ccc5c4)c3)CC2)=C(c2ccc(Cl)cc2)C1` [Example 13, 4-(4-{[2-(4-chlorophenyl)-4,4-dimethylcyclohex-1-en-1-yl]methyl}piperazin-1-yl)-N-[(3-nitro-4-{[(3R)-tetrahydro-2H-pyran-3-ylmethyl]amino}phenyl)sulfonyl]-2-(1H-pyrrolo[2,3-b]pyridin-5-yloxy)benzamide], for which the EC50 turned out to be 23.2 nM with RS4;11 cells [2] (setting [3]) and 23 nM with RS4;11 cells [2] (setting [4]). Also, the Ki on Bcl-2 (setting [5]) is < 0.01 nM.

On to `CC1(C)CC(c2ccc(Cl)cc2)=C(CN2CCN(c3ccc(C(=O)NS(=O)(=O)c4ccc(NCC5CCOCC5)c([N+](=O)[O-])c4)c(Oc4cnc5[nH]ccc5c4)c3)CC2)CO1` [Example 15, 4-(4-{[4-(4-chlorophenyl)-6,6-dimethyl-5,6-dihydro-2H-pyran-3-yl]methyl}piperazin-1-yl)-N-({3-nitro-4-[(tetrahydro-2H-pyran-4-ylmethyl)amino]phenyl}sulfonyl)-2-(1H-pyrrolo[2,3-b]pyridin-5-yloxy)benzamide], for which the figures for the EC50 in the assay on RS4;11 cells [2] (setting [3]) and in the assay on RS4;11 cells [2] (setting [4]) were 12.8 nM and 13 nM, respectively. For the same compound, the inhibitory constant (Ki) at Bcl-2 (setting [6]) and at Bcl-2 (setting [5]) was < 0.01 nM in each case.

Turning to `CC1(C)CCC(CN2CCN(c3ccc(C(=O)NS(=O)(=O)c4ccc(NC5CCN(C6CCOCC6)CC5)c([N+](=O)[O-])c4)c(Oc4ccc5[nH]ccc5c4)c3)CC2)=C(c2ccc(Cl)cc2)C1` [Example 89, 4-(4-{[2-(4-chlorophenyl)-4,4-dimethylcyclohex-1-en-1-yl]methyl}piperazin-1-yl)-2-(1H-indol-5-yloxy)-N-({3-nitro-4-[(1-tetrahydro-2H-pyran-4-ylpiperidin-4-yl)amino]phenyl}sulfonyl)benzamide], the EC50 worked out at 64.5 nM in the assay with RS4;11 cells [2] (setting [3]) and 64 nM in the assay with RS4;11 cells [2] (setting [4]). Besides, the Ki on Bcl-2 (read-out: Bcl-2 FRET ki) is 0.074 nM.

As to `CC1(C)CCC(CN2CCN(c3ccc(C(=O)NS(=O)(=O)c4ccc(OC[C@H]5CC[C@H](O)CC5)c([N+](=O)[O-])c4)c(Oc4cnc5[nH]ccc5c4)c3)CC2)=C(c2ccc(Cl)cc2)C1` [Example 120, 2-(1H-pyrrolo[2,3-b]pyridin-5-yloxy)-4-(4-((2-(4-chlorophenyl)-4,4-dimethylcyclohex-1-enyl)methyl)piperazin-1-yl)-N-(4-((trans-4-hydroxycyclohexyl)methoxy)-3-nitrophenylsulfonyl)benzamide], the EC50 with RS4;11 cells [2] (setting [3]) is 1.47 nM. In addition, the inhibition constant (Ki) at Bcl-2 (setting [6]) was < 0.01 nM.

Regarding `CC1(C)CCC(CN2CCN(c3ccc(C(=O)NS(=O)(=O)c4ccc(OC[C@H]5CCN(C6COC6)C5)c([N+](=O)[O-])c4)c(Oc4cnc5[nH]ccc5c4)c3)CC2)=C(c2ccc(Cl)cc2)C1` [Example 184, 4-(4-{[2-(4-chlorophenyl)-4,4-dimethylcyclohex-1-en-1-yl]methyl}piperazin-1-yl)-N-[(3-nitro-4-{[(3S)-1-oxetan-3-ylpyrrolidin-3-yl]methoxy}phenyl)sulfonyl]-2-(1H-pyrrolo[2,3-b]pyridin-5-yloxy)benzamide], the EC50 in the assay with RS4;11 cells [2] (setting [3]) was 23.2 nM. The Ki on Bcl-2 (setting [6]) was < 0.01 nM.

`CC1(C)CCC(CN2CCN(c3ccc(C(=O)NS(=O)(=O)c4ccc(OCC5CCN(C6COC6)CC5)c([N+](=O)[O-])c4)c(Oc4cnc5[nH]ccc5c4)c3)CC2)=C(c2ccc(Cl)cc2)C1` [Example 191, 4-(4-{[2-(4-chlorophenyl)-4,4-dimethylcyclohex-1-en-1-yl]methyl}piperazin-1-yl)-N-({3-nitro-4-[(1-oxetan-3-ylpiperidin-4-yl)methoxy]phenyl}sulfonyl)-2-(1H-pyrrolo[2,3-b]pyridin-5-yloxy)benzamide]: the EC50 in the assay with RS4;11 cells [2] (setting [3]) turned out to be 6.91 nM. The Ki on Bcl-2 (setting [6]) was < 0.01 nM.

The record behind these values is patent US20240043404A1 (AbbVie Inc., priority 2009, published 2024).
